From patent publication US8747891B2, “Ceramide anionic liposome compositions” (The Penn State Research Foundation, priority 2011, dated 2014) come the findings set out here.

For assay [1], the system named is Pane 1 pancreatic cancer cells. Briefly: MTS cell viability assay. In kind it is cell-based. The conditions noted are these: 24 hrs; 3.2 μM liposomes; 0.01, 0.1 or 1 μM vinblastine; p<0.05 free vs encapsulated vinblastine. On the procedure: Pane 1 pancreatic cancer cells were treated with 3.2 μM anionic (A) and neutral ceramide (C6) or non-ceramide nanoliposomes that either contained 0.01, 0.1 or 1 μM vinblastine or PBS. Ghost liposomes contained no ceramide or vinblastine. Unencapsulated (free) vinblastine was also administered at similar concentrations. All treatments were for 24 hrs.
Cell viability was assessed by MTS assay, which measures cellular respiration as a function of reduction of MTS to formazene at 490 nm. […] N=6 individual samples for each condition, replicated in triplicate.
MTS (3-(4,5-dimethylthiazol-2-yl)-5-(3-carboxymethoxyphenyl)-2-(4-sulfophenyl)-2H-tetrazolium), in the presence of phenazine methosulfate (PMS), produces a reduced formazan product, whose purple color can be assessed. In living cells, reduced formazan has an absorbance maximum at 490-500 nm in phosphate-buffered saline. The MTS assay is often described as a ‘one-step’ MTT assay, which offers the convenience of adding the reagent straight to the cell culture without the intermittent steps required in the MTT assay. However this convenience makes the MTS assay susceptible to cololmetric interference as the intermittent steps in the MTT assay remove traces of colored compounds, whilst these remain in the microtiter plate in the one-step MTS assay.

For a further assay, the system named is primary human AML cells. Briefly: Clonogeneic growth in semisolid media. In kind it is cell-based. The conditions noted are these: 12-14 days in semi-solid medium; FIG. 3A. The text has this: For FIG. 3A, primary human AML cells (n=5) were thawed and grown for 12-14 days in semi-solid medium with the indicated concentration of Lip-C6 or Lip-ghost and/or vinblastine.

As to `CC[C@]1(O)C[C@@H]2CN(CCc3c([nH]c4ccccc34)[C@@](C(=O)OC)(c3cc4c(cc3OC)N(C)[C@H]3[C@@](O)(C(=O)OC)[C@H](OC(C)=O)[C@]5(CC)C=CCN6CC[C@]43[C@@H]65)C2)C1` [vinblastine], the “cell viability (MTS)” value in assay [1] was “Only the high concentration of free vinblastine reduced cell viability”. Besides, the “growth and survival / colony formation” value with primary human AML cells is on record as “potentiates the inhibitory activity of C6 ceramide nanoliposomes”.
